Experimental data reported in US7264932B2, “Nuclease inhibitor cocktail” (Applera Corporation, priority 1999, dated 2007).
pKi: −log10 of the molar value.

How the values were obtained:
[1] = molecular target: eosinophil-derived neurotoxin (EDN) (Homo sapiens, UniProt P10153); assay: Intactness of total RNA (RNA LabChip), EDN; assay type: biochemical; conditions: 100 uM BpB, 1 ng/ul EDN
[2] = molecular target: T1, human pancreatic RNase (HPR) (Homo sapiens, UniProt P07998); assay: Intactness of total RNA (RNA LabChip), HPR; assay type: biochemical; conditions: 100 uM BpB, 1 ng/ul HPR
T1 sequence (P07998 29-156): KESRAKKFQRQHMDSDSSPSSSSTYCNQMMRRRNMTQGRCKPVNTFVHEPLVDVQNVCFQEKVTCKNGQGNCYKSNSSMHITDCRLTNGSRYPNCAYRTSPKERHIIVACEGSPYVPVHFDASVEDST

DNase I = DNase I (Bos taurus, UniProt P00639); assay: Lambda DNA digestion assay with DNase I; assay type: biochemical; conditions: 0.02 U DNase I, 1 ug lambda DNA, 10 min at 37C
DNase I, sequence (P00639 23-282): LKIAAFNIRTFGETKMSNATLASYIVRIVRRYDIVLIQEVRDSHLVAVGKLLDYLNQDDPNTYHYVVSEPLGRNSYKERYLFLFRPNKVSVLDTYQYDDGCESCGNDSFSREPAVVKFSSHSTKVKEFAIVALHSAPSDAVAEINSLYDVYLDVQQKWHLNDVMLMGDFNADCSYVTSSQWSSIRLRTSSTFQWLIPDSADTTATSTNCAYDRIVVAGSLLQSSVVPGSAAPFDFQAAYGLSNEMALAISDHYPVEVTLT
Source text: One application for small molecule RNase inhibitors is as an RNA control agent during enzymatic manipulation of solutions containing RNA. These reactions include in vitro transcription, in vitro translation, DNase digestion, and reverse transcription, among others. […] […] […] All reactions were quenched with EDTA and the cleavage products resolved on a 1% agarose gel.
As a result, compounds such as #467929, 140553, and 180582 may have utility in curbing the activity of residual RNases that may carry over from RNA isolation methods during DNase treatments of the RNA.

E. coli RNase I = E. coli RNase I (Escherichia coli, UniProt P21338); assay: Intactness of total RNA (RNA LabChip), E. coli RNase I; assay type: biochemical; conditions: 100 uM BpB, 7 ng/ul E. coli RNase I
E. coli RNase I, sequence (P21338 24-268): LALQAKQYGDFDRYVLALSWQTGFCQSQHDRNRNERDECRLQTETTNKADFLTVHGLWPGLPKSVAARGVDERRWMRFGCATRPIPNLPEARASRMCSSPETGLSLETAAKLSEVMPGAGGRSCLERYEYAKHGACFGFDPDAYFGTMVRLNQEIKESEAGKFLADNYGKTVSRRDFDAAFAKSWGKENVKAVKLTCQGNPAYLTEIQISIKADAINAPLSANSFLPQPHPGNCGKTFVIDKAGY

nuclease = nuclease (Homo sapiens, UniProt P03950); assay: Ki of Lead 1 and Lead 2 analogs (Tables 1 and 2); assay type: biochemical; conditions: Table 1, Lead 1 Analog List
nuclease, sequence (P03950 25-147): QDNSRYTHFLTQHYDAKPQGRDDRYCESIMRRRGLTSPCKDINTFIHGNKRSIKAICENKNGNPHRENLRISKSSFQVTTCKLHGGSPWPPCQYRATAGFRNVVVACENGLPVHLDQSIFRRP

[3] = system: one-step RT-PCR with MMLV-RT and SuperTaq, target hGAPDH; assay: One-step qRT-PCR tolerance, hGAPDH; assay type: biochemical
Method: To evaluate the compatibility of Benzopurpurin B and 4B in RT-PCR applications, 100 nM, 1 uM, 10 uM, and 25 uM were tested in Ambion's MessageSensor RT-PCR Kit using the supplier's instructions and using primers/probe designed to amplify a 226 nt amplicon from the human GAPDH mRNA. Reaction conditions: 20-ul one-step RT-PCR with MMLV-RT (0.4 U/ul final) and SuperTaq (0.04 U/ul final). Cycling conditions: Stage 1. 42 C for 15 minutes, Stage 2. 95 C for 5 min, Stage 3. 95 C-15 sec and 60 C-60 sec, where Stage 3 is repeated 40 times. […] The compound was tolerated at 10 uM or lower with no significant loss of sensitivity (Table 16).

bovine RNase A [4] = molecular target: T2, bovine RNase A (Bos taurus, UniProt P61823); assay: Intactness of total RNA (RNA LabChip), bovine RNase A; assay type: biochemical; conditions: 100 uM BpB, 8.3 pg/ul bovine RNase A
T2 sequence (P61823 27-150): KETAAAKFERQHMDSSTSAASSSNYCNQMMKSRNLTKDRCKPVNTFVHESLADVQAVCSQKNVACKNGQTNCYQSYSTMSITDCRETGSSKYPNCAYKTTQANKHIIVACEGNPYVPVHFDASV
Method: (§1) A total of 100 pg/ul e. […].
(§2) Mouse pancreatic tissue (5 mg) was disrupted in 50 ul of 24 mM Hepes, pH 7.2, 50 mM NaCl, 1 mM MgCl2. The diluted lysate (1:20,000) was pre-incubated with 50 uM Benzopurpurin B (BpB) for 30 sec and then added to 100 ng/ul mouse liver total RNA (Ambion) and incubated at 23 C for an additional 4 min. Samples were quenched in a guanidinium lysis buffer, and the RNA purified via MEGAclear™ MAG-96 and eluted with 20 ul nuclease-free water. […] These experiments were conducted in the same fashion except that 100 uM BpB was employed. The sample (1 ul) was analyzed by 2100 BioAnalyzer software (Agilent) after separation on an RNA LabChip.
(§3) Pancreatic tissue (5 mg) was dounced in 50 ul of 24 mM Hepes, pH 7.2, 50 mM NaCl, 1 mM MgCl2. The lysate was diluted (1:20,000) and then pre-incubated with 200 uM of 467929. […] All samples were pre-incubated for 30 sec before being added to 100 ng/ul mouse liver total RNA (Ambion) and incubated at 23C for an additional 4 min. The RNA was then immediately purified via MEGAclear™ MAG-96 and eluted with 20 ul nuclease-free water. The recovered RNA (1 ul) was analyzed by 2100 BioAnalyzer software after separation on an RNA LabChip.

diluted pancreas lysate = assay: Intactness of total RNA (RNA LabChip), diluted pancreas lysate; assay type: biochemical, mouse; conditions: pancreas lysate 1:20,000, 23 C 4 min
Method: as §1
Pancreatic lysate (0.1 mg/ml) was diluted 1:20,000 in 24 mM Hepes, pH 7.2, 50 mM NaCl, 1 mM MgCl2 and pre-incubated with either 1% SDS or 6.25 mM OVA for 30 s prior to the addition of 2 ug mouse liver total RNA. Reactions were incubated at 25 C for an additional 4 min, quenched, and analyzed on an RNA LabChip.
as §2
Mouse pancreatic tissue (5 mg) was dounced in 50 ul of 24 mM Hepes, pH 7.2, 50 mM NaCl, 1 mM MgCl2. A diluted lysate (1:20,000) was pre-incubated with 100 uM BpB or the analog Benzopurpurin 4B (Bp4B) for 30 sec and then added to 100 ng/ul mouse liver total RNA (Ambion) and incubated at 23 C for an additional 4 min. Samples were quenched in a guanidinium lysis buffer, and the RNA purified via MEGAclear™ MAG-96 and eluted with 20 ul nuclease-free water. The sample (1 ul) was analyzed by 2100 BioAnalyzer software (Agilent) after separation on an RNA LabChip.
as §3

MMLV RT RNase H = MMLV RT RNase H (Moloney murine leukemia virus, UniProt P03355); assay: RT-based RNase H cleavage of RNA:DNA hybrid; assay type: biochemical
Method: As described above, Chembridge compound #467929 offered protection from several RNA-specific endonucleolytic activities. […] A 20-mer DNA oligonucleotide was asymmetrically annealed to a 1500 base synthetic RNA to create an RNA:DNA duplex substrate for RNase H. Reactions were initiated with 10 U of MMLV RT in 1× RT buffer (50 mM TrisCl pH 8.3, 75 mM KC, 3 mM MgCl2, 5 mM DTT) containing 500 ng/ul RNA:DNA hybrid. All reactions contained 5% DMSO either with or without the small molecule RNase inhibitor. Samples were incubated for 5 min at 37 C, and quenched with EDTA. Products were resolved on an RNA LabChip. Cleavage products were observed as two equally represented RNA species of 1000 and 500 bases. Product length and yield were determined using the 2100 BioAnalyzer software (Agilent). Table 18 details the level of inhibition of MMLV RT RNase H that is observed as a function of the concentration of compounds 467929 and 227726.

bovine RNase A [5] = molecular target: T2, bovine RNase A; assay: Ki determination by Dixon analysis (RNaseAlert); assay type: biochemical; conditions: 74 pM RNase A, 40 nM RNaseAlert substrate, pH 7.0
Source text: To measure the inhibition constant of compound #467929 against bovine RNase A, Dixon analysis was used to determine the relationship between RNase activity and inhibitor concentration. The […] fluorescence assay (Ambion) was used to quantify RNase activity.

eosinophil-derived neurotoxin (EDN), sequence (P10153 28-161): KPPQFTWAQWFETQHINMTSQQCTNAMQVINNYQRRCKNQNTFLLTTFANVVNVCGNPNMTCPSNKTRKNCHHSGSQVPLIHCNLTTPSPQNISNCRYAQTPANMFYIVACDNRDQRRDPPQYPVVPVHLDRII

Row | SMILES | inhibition of RNase (RNA intactness) [1] | inhibition of RNase (RNA intactness) [2] | concentration tolerated with little or no effect on enzymatic DNA cleavage (DNase I) | inhibition of RNase (RNA intactness) (E. coli RNase I) | pKi (nuclease) | Ct at 50 ng Input RNA ([3]; RT w RIP, inhibitor 1 uM) | Ct at 50 ng Input RNA ([3]; RT w RIP, inhibitor 10 uM) | Ct at 50 ng Input RNA ([3]; RT w RIP, inhibitor 25 uM) | Ct at 50 ng Input RNA ([3]; RT w RIP, inhibitor 100 nm) | Ct at 50 ng Input RNA ([3]; RT without RIP, inhibitor 1 uM) | Ct at 50 ng Input RNA ([3]; RT without RIP, inhibitor 10 uM) | Ct at 50 ng Input RNA ([3]; RT without RIP, inhibitor 25 uM) | Ct at 50 ng Input RNA ([3]; RT without RIP, inhibitor 100 nm) | inhibition of RNase (RNA intactness) (bovine RNase A [4]) | protection of total RNA from degradation (diluted pancreas lysate; 50 uM BpB) | protection of total RNA from degradation (diluted pancreas lysate; 100 uM inhibitor) | % Cleavage (MMLV RT RNase H; inhibitor 8 uM, 36 without inhibitor) [%] | % Cleavage (MMLV RT RNase H; inhibitor 40 uM) [%] | pKi (bovine RNase A [5])
1 | Cc1cc(-c2ccc(/N=N/c3c(N)ccc4cc(S(=O)(=O)O)ccc34)c(C)c2)ccc1/N=N/c1c(N)ccc2cc(S(=O)(=O)O)ccc12 [Benzopurpurin B, 3,3′-di-methylbiphenyl-4,4′-bis(2-amino-naphthylazo-6-sulfo-nate)] | effective inhibitor | effective inhibitor | up to 10 uM | effective inhibitor | 5.30 | 17.66 | 19.27 | undet | 17.27 | 17.35 | 17.96 | undet | 17.39 | effective inhibitor | significant protection | significant protection | – | – | –
2 | O=C(Nc1ccc(Cc2ccc(NC(=O)c3cccc([N+](=O)[O-])c3)c(C(=O)O)c2)cc1C(=O)O)c1cccc([N+](=O)[O-])c1 [compound 467929, 3,3′-dicarboxy-4,4′-bis(3-ni-trophenylamido)di-phenylmethane] | – | – | – | – | – | – | – | – | – | – | – | – | – | – | – | – | 42 | 8 | ~4.92
